Data: paper PMC12019328, “Discovery of an ApoE4-targeted small-molecule SirT1 enhancer for the treatment of Alzheimer’s disease” (Scientific Reports, 2025)

Legend:
[1] = tested on: SirT1 mRNA; assay: Hippocampal SirT1 mRNA in ApoE4-TR:5xFAD mice; assay type: in vivo; settings: 20 mg/Kg BID, 56 days, vs vehicle
Protocol: The active (-) enantiomer, DDL-218, underwent efficacy testing in ApoE4-TR:5xFAD mice[27] that were 6-7.5 months old at the start of treatment. ApoE4-TR:5xFAD male and female mice received either 20 mg/Kg DDL-218 BID (~ 8- to10-hour interval; total daily dose of 40 mkd) on weekdays and a single 40 mg/Kg dose on weekends (n = 12) or vehicle-only (n = 11); 8 C57BL/6 mice received vehicle-only as behavioral controls. Dosing was by the oral route and by oral feeding using a pipette as previously described, not gavage, as it is safer for repeated oral dosing than gavage. The dose of 20 mg/kg BID (40 mkd) was selected based on findings from PK analysis and was the highest feasible in the formulation used for oral feeding (compound is first solubilized in water, then mixed strawberry syrup diluted in water, for a final vehicle that is 25% syrup and 75% water). […]
Total RNA was isolated from cells or brain tissue (Qiagen RNEasy kit). Total RNA (0.5–1.0 µg) mRNA was then converted to cDNA (SuperScript™ III First-Strand Synthesis SuperMix kit; Thermo Fisher), and gene mRNA levels were measured using a gene-specific qRT-PCR Taqman assays (Thermo Fisher). Gene mRNA levels were normalized to GAPDH mRNA levels measured either in the same cDNA sample or in the same qPCR reaction using multiplexing of gene-of-interest/VIC and GAPDH/FAM, normalized by the delta-delta-Ct method.

[2] = tested on: hippocampal proteins; assay: Global proteomics on hippocampal brain tissue; assay type: in vivo, mice
Protocol: Hippocampal brain tissue from both DDL-218- and vehicle-treated mice underwent global proteomics analysis, as described in Supplementary Methods.
Liquid chromatography tandem mass spectrometry (LC-MS/MS) was used for proteomic analysis.
Proteins from hippocampal tissue from mice treated with either DDL-218 or vehicle were diluted in T-PER buffer and concentrations adjusted after BCA protein quantitation assay (Thermo Fisher Scientific). The protein disulfide bonds were reduced and alkylated by treatment with 10 mM tris (2-carboxyethyl) phosphine (TCEP) and 40 mM chloroacetamide (CAA) for 10 min at 95°C. SP3 beads were added to each sample concentrated at 25 μL of beads for 100 μg of protein. Samples were washed 3 times with 2x the sample volume of 80% ethanol in the DynaMag™-2 Magnet and protein solutions diluted 5-fold with 50 mM TEAB.
Trypsin was added in a 1:100 (mass trypsin:mass total protein) ratio to target proteins, and the samples were incubated overnight on a rocker at 37°C.
Samples were centrifuged at 16,000 x g for 5 minutes at room temperature. A colorimetric peptide assay (Thermo Fischer Scientific) was run on a sample of each supernatant. The results were used to aliquot […] of protein from each sample, which were then lyophilized in the SpeedVac. Samples were reconstituted in 100mM TEAB, individually labelled using TMT Isobaric Label Reagent Set (Thermo Fischer Scientific), and incubated at room temperature for one hour. Each sample was then incubated at room temperature for 15 minutes with 5uL of 5% hydroxylamine and lyophilized in the SpeedVac. Subsequently, samples were reconstituted in 2% acetonitrile + 0.1% TFA, and a 5uL aliquot of each sample was pooled together. The pooled sample was desalted with C18 Stagetips made from Empore C18 solid phase extraction disks and lyophilized in the SpeedVac. It was then reconstituted in 2% acetonitrile + 0.1% Formic Acid (FA) and transferred to an autosampler vial. LC/MS2 was performed using a nanoLC and orbitrap mass analyzer using a C18 column and DDA/MS2 mass spectrometer method.
Samples were injected (5 μL) onto a reverse phase nanobore HPLC column (AcuTech Scientific, C18, 1.8 μm particle size, 360 μm x 20 cm, 150 μm ID), equilibrated in solvent E and eluted (500 nL/min) with an increasing concentration of solvent F (acetonitrile/water/FA, 98/2/0.1, v/v/v: min/% F; 0/0, 5/3, 18/7, […]
(Framingham, MA)). The effluent from the column was directed to a nanospray ionization source connected to a hybrid quadrupole-Orbitrap mass spectrometer (Q Exactive Plus, Thermo Fisher Scientific) operating in the positive ion data-dependent mode alternating between a full scan (m/z 350-1700, automated gain control (AGC) target 3 x 106, 50 ms maximum injection time, FWHM resolution 70,000 at m/z 200) and up to 10 MS/MS scans (quadrupole isolation of charge states ≥ 2, isolation width 0.7 Th) with optimized fragmentation conditions (normalized collision energy of 32, dynamic exclusion of 30 s, AGC target 1 x 105, 100 ms maximum injection time, FWHM resolution 35,000 at m/z 200). The raw data from both analyses was processed using Proteome Discoverer™ (version 2.4). Tryptic peptides containing amino acid sequences unique to individual proteins were used for identification/quantification of each protein.
Raw data was submitted to a database search using Proteome Discoverer 3.1 [ThermoFischer Scientific]. Using the results for TMT labeling efficiency, sample volumes were adjusted to achieve an equal ratio of protein across TMT labeled samples. Remaining samples were pooled in equal ratio, and the pooled sample was desalted and lyophilized in the SpeedVac overnight.
The pooled sample was fractionated using Pierce High pH Reversed-Phase Peptide Fractionation Kit (Thermo Fischer Scientific) according to the manufacturer’s protocol. The fractions were dried in the SpeedVac and reconstituted in 0.1% formic acid. Samples were transferred to autosampler vials and LC/MS2 was performed as previously described. […]

## CC(N)C(=O)OC(C)(C)Cc1ccncc1 (centres unmarked) [DDL-218]
[1]
  hippocampal SirT1 mRNA: significantly increased
[2]; Cep170, hippocampal tissue
  Abundance Ratio (DDL218/Veh): 1.36
[2]; Fxyd7, hippocampal tissue
  Abundance Ratio (DDL218/Veh): 1.317
[2]; Luc7l2, hippocampal tissue
  Abundance Ratio (DDL218/Veh): 0.793
[2]; Nubpl, hippocampal tissue
  Abundance Ratio (DDL218/Veh): 1.374
[2]; Ptprn2, hippocampal tissue
  Abundance Ratio (DDL218/Veh): 1.411
[2]; Rpl31, hippocampal tissue
  Abundance Ratio (DDL218/Veh): 1.22
[2]; Rps20, hippocampal tissue
  Abundance Ratio (DDL218/Veh): 1.223
[2]; Scfd2, hippocampal tissue
  Abundance Ratio (DDL218/Veh): 1.338
[2]; Shisa6, hippocampal tissue
  Abundance Ratio (DDL218/Veh): 1.219
[2]; Tbc1d17, hippocampal tissue
  Abundance Ratio (DDL218/Veh): 1.25
